Earlier results on one molecule are cited in patent EP4778980A1, “SILICONE MATERIAL, SILICONE TUBE, IMPLANT AND PREPARATION METHOD THEREFOR, ROD CORE, PERFORATED IMPLANT AND PREPARATION METHOD THEREFOR AND USE THEREOF” (SHENYANG XINGHUA PHARMACEUTICAL TECHNOLOGY CO., LTD, priority 2023, dated 2025).

For `Cc1nc2n(c(=O)c1CCN1CCC(c3noc4cc(F)ccc34)CC1)CCCC2O` (stereo not shown) [Paliperidone], the solubility result is “Paliperidone (98% purity) Mw = 426.48, 0.05 mg/ml”.
